Assay results as given in patent US20160159814A1, “GLYCINE TRANSPORTER INHIBITOR” (TAISHO PHARMACEUTICAL CO., LTD., priority 2013, published 2016).

Biological target: T1, human type 1 glycine transporter (GlyT1) (Homo sapiens, UniProt P48067)
T1 construct: T98G cells (glioma cells) expressing human type 1 glycine transporter (GlyT1) were used; endogenous in cells; host or cells: T98G cells (human glioma cells)
T1 sequence (P48067 1-706): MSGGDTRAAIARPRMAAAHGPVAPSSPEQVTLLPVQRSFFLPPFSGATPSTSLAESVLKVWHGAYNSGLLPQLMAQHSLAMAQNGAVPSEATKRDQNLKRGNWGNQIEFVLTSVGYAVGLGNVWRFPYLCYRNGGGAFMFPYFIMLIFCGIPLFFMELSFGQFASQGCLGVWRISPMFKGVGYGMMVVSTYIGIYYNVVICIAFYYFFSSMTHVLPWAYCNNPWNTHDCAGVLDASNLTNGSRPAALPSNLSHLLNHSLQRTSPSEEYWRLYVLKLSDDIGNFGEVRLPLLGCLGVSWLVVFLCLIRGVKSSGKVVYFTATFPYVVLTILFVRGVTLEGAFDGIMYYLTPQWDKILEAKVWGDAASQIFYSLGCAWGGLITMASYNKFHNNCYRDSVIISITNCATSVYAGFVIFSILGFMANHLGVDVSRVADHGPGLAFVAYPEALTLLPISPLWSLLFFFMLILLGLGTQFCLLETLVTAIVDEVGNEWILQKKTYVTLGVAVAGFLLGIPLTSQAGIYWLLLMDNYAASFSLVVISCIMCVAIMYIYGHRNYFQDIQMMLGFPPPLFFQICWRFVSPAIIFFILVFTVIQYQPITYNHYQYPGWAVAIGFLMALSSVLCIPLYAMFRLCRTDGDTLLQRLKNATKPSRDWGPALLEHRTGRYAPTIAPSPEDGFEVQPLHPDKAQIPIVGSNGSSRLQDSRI
Assay: Glycine uptake inhibition experiment ([3H] glycine uptake in T98G cells expressing GlyT1)
Assay type: cell-based
Settings: not given
Experimental: Glycine Uptake Inhibition Experiment
A glycine uptake experiment was conducted in accordance with the method published in Neuron, 8, 927-935, 1992. In the experiment, T98G cells (glioma cells) expressing human type 1 glycine transporter (GlyT1) were used. The T98G cells were seeded in a 96-well plate at 2.0×10^4 cells/well and cultured overnight in a CO2 incubator. The test substance was dissolved in a 100% DMSO solution and then dissolved in a 10 mM HEPES buffer solution (pH 7.4) containing 150 mM sodium chloride, 1 mM calcium chloride, 5 mM potassium chloride, 1 mM magnesium chloride, 10 mM glucose and 0.2% bovine serum albumin. After removing the cell culture medium, the test substance was subjected to a 10-min pretreatment. Subsequently, the test substance and [^3H] glycine (final concentration: 250 nM) were added to the cells and reaction was performed at room temperature for 15 minutes. After the end of the reaction, the extracellular fluid was aspirated with a manifold to remove excess labeled glycine present outside the cells, and then the cells were lysed with a 0.5 M aqueous sodium hydroxide solution. The glycine content in the cells was determined by measuring the radioactivity in the cell lysate with a liquid scintillation counter. Glycine uptake in the presence of 10 μM ALX5407 was defined as non-specific uptake, and the value calculated by subtracting the amount of the non-specific uptake from the total uptake in the absence of 10 μM ALX5407 was defined as specific uptake. In addition, glycine uptake inhibitory activity (IC50 value) was calculated from an inhibition curve at the concentrations of each test substance ranging from 10^−9 to 10^−5 M. It should be noted that ALX5407 is an HCl salt of N-[(3R)-3-([1,1′-biphenyl]-4-yloxy)-3-(4-fluorophenyl)propyl]-N-methylglycine.

| IC50 [µM] | Structure (SMILES) |
| --- | --- |
| 0.0097 | C[C@H](O)c1cccc2c1C(F)(F)C(=O)N2Cc1ccc(Cl)c(Cl)n1 [Compound 244, 1-[(5,6-dichloropyridin-2-yl)methyl]-3,3-difluoro-4-[(1S)-1-hydroxyethyl]-1,3-dihydro-2H-indol-2-one] |
| 0.0067 | CC(O)c1c(F)ccc2c1C(F)(F)C(=O)N2Cc1cncc(Cl)c1 (single isomer, unassigned) [Compound 183, 1-[(5-chloropyridin-3-yl)methyl]-3,3,5-trifluoro-4-(1-hydroxyethyl)-1,3-dihydro-2H-indol-2-one] |
| 0.048 | COc1cc(CN2C(=O)C(F)(F)c3c(C(O)C(F)F)cccc32)ccn1 (single isomer, unassigned) [Compound 165, 4-(2,2-difluoro-1-hydroxyethyl)-3,3-difluoro-1-[(2-methoxypyridin-4-yl)methyl]-1,3-dihydro-2H-indol-2-one] |
| 0.0086 | C[C@H](O)c1cccc2c1C(F)(F)C(=O)N2Cc1cnc(Cl)c(Cl)c1 [Compound 200, 1-[(5,6-dichloropyridin-3-yl)methyl]-3,3-difluoro-4-[(1S)-1-hydroxyethyl]-1,3-dihydro-2H-indol-2-one] |
| 4.2 | C[C@H](O)c1cccc2c1C(F)(F)C(=O)N2Cc1ccc(-n2nccn2)nc1 [Compound 196, 3,3-difluoro-4-[(1S)-1-hydroxyethyl]-1-{[6-(2H-1,2,3-triazol-2-yl)pyridin-3-yl]methyl)-1,3-dihydro-2H-indol-2-one] |
| 0.18 | N#Cc1cc(CN2C(=O)C(F)(F)c3c(C(O)C(F)F)cccc32)c(F)cn1 (single isomer, unassigned) [Compound 219, 4-{[4-(2,2-difluoro-1-hydroxyethyl)-3,3-difluoro-2-oxo-2,3-dihydro-1H-indol-1-yl]methyl)-5-fluoropyridine-2-carbonitrile] |
| 6.8 | O=C1N(Cc2cncc(Cl)c2)c2c(F)ccc(C(O)C(F)F)c2C1(F)F (single isomer, unassigned) [Compound 254, 1-[(5-chloropyridin-3-yl)methyl]-4-(2,2-difluoro-1-hydroxyethyl)-3,3,7-trifluoro-1,3-dihydro-2H-indol-2-one] |
| 0.38 | C[C@H](O)c1cccc2c1C(F)(F)C(=O)N2Cc1ncccc1C(F)(F)F [Compound 227, 3,3-difluoro-4-[(1S)-1-hydroxyethyl]-1 {[3-(trifluoromethyl)pyridin-2-yl]methyl)-1,3-dihydro-2H-indol-2-one] |
| 6.7 | C[C@H](O)c1cccc2c1C(F)(F)C(=O)N2Cc1ccc(-n2ccnn2)nc1 [Compound 197, 3,3-difluoro-4-[(1S)-1-hydroxyethyl]-1-{[6-(1H-1,2,3-triazol-1-yl)pyridin-3-yl]methyl)-1,3-dihydro-2H-indol-2-one] |
| 0.12 | COc1ccc(CN2C(=O)C(F)(F)c3c([C@H](C)O)cccc32)nc1C#N [Compound 217, 6-({3,3-difluoro-4-[(1S)-1-hydroxyethyl]-2-oxo-2,3-dihydro-1H-indol-1-yl}methyl)-3-methoxypyridine-2-carbonitrile] |

Same assay, conditions: glycine uptake inhibition

| IC50 [µM] | Structure (SMILES) |
| --- | --- |
| 0.066 | O=C1N(Cc2cncc(-n3nccn3)c2)c2cccc([C@@H](O)C(F)(F)F)c2C1(F)F [Compound 134, 3,3-difluoro-1-{[5-(2H-1,2,3-triazol-2-yl)pyridin-3-yl]methyl}-4-[(1R)-2,2,2-trifluoro-1-hydroxyethyl]-1,3-dihydro-2H-indol-2-one] |
| 0.18 | O=C1N(Cc2ccc(F)nc2)c2cccc([C@@H](O)C(F)(F)F)c2C1(F)F [Compound 155, 3,3-difluoro-1-[(6-fluoropyridin-3-yl)methyl]-4-[(1R)-2,2,2-trifluoro-1-hydroxyethyl]-1,3-dihydro-2H-indol-2-one] |
| 0.088 | O=C1N(Cc2ccnc(C(F)F)c2)c2cccc(C(O)C(F)F)c2C1(F)F (single isomer, unassigned) [Compound 152, 4-(2,2-difluoro-1-hydroxyethyl)-1-{[2-(difluoromethyl)pyridin-4-yl]methyl}-3,3-difluoro-1,3-dihydro-2H-indol-2-one] |
| 0.015 | C[C@H](O)c1cccc2c1C(F)(F)C(=O)N2Cc1cccc(C#N)c1 [Compound 57, 3-({3,3-difluoro-4-[(1S)-1-hydroxyethyl]-2-oxo-2,3-dihydro-1H-indol-1-yl}methyl) benzonitrile] |
| 0.26 | O=C1N(Cc2cc(F)ccn2)c2cccc(C(O)C(F)F)c2C1(F)F (single isomer, unassigned) [Compound 154, 4-(2,2-difluoro-1-hydroxyethyl)-3,3-difluoro-1-[(4-fluoropyridin-2-yl)methyl]-1,3-dihydro-2H-indol-2-one] |
| 0.037 | C[C@H](O)c1cccc2c1C(F)(F)C(=O)N2Cc1nc2ccccc2s1 [Compound 73, 1-(1,3-benzothiazol-2-ylmethyl)-3,3-difluoro-4-[(1S)-1-hydroxyethyl]-1,3-dihydro-2H-indol-2-one] |
| 0.13 | Cn1c(CN2C(=O)C(F)(F)c3c([C@@H](O)C(F)(F)F)cccc32)cc2ccccc2c1=O [Compound 142, 3-({3,3-difluoro-2-oxo-4-[(1R)-2,2,2-trifluoro-1-hydroxyethyl]-2,3-dihydro-1H-indol-1-yl}methyl)-2-methylisoquinan-1(2H)-one] |
| 0.23 | C[C@H](O)c1cccc2c1C(F)(F)C(=O)N2Cc1ccccn1 [Compound 60, 3,3-difluoro-4-[(1S)-1-hydroxyethyl]-1-(pyridin-2-ylmethyl)-1,3-dihydro-2H-indol-2-one] |
| 0.034 | C[C@H](O)c1cccc2c1C(F)(F)C(=O)N2Cc1nc2ccccc2n1C [Compound 75, 3,3-difluoro-4-[(1S)-1-hydroxyethyl]-1-[(1-methyl-1H-benzimidazol-2-yl)methyl]-1,3-dihydro-2H-indol-2-one] |
| 0.11 | C[C@H](O)c1cccc2c1C(F)(F)C(=O)N2Cc1ccnc(-n2nccn2)c1 [Compound 45, 3,3-difluoro-4-[(1S)-1-hydroxyethyl]-1-{[2-(2H-1,2,3-triazol-2-yl)pyridin-4-yl]methyl}-1,3-dihydro-2H-indol-2-one] |
| 0.054 | CC(O)c1cccc2c1C(F)(F)C(=O)N2Cc1nc2ccccc2c(=O)n1C (stereo not shown) [Compound 30, 2-{[3,3-difluoro-4-(1-hydroxyethyl)-2-oxo-2,3-dihydro-1H-indol-1-yl]methyl)-3-methylquinazolin-4(3H)-one] |
| 0.24 | O=C1N(Cc2cncc(F)c2)c2cccc(C(O)C(F)F)c2C1(F)F (single isomer, unassigned) [Compound 144, 4-(2,2-difluoro-1-hydroxyethyl)-3,3-difluoro-1-[(5-fluoropyridin-3-yl)methyl]-1,3-dihydro-2H-indol-2-one] |
| 1.5 | O=C1N(Cc2cccc(Cl)n2)c2cccc(C3(O)CC3)c2C1(F)F [Compound 26, 1-[(6-chloropyridin-2-yl)methyl]-3,3-difluoro-4-(1-hydroxycyclo-propyl)-1,3-dihydro-2H-indol-2-one] |
| 0.038 | C[C@H](O)c1cccc2c1C(F)(F)C(=O)N2Cc1ccnc(C#N)c1 [Compound 40, 4-({3,3-difluoro-4-[(1S)-1-hydroxyethyl]-2-oxo-2,3-dihydro-1H-indol-1-yl}methyl)pyridine-2-carbonitrile] |

Same assay, conditions: table section whose head prints (μm)

| IC50 [µM] | Structure (SMILES) |
| --- | --- |
| 0.33 | O=C1N(Cc2cnc(Cl)cc2Cl)c2cccc(C(O)C(F)F)c2C1(F)F (single isomer, unassigned) [Compound 269, 1-[(4,6-dichloropyridin-3-yl)methyl]-4-(2,2-difluoro-1-hydroxyethyl)-3,3-difluoro-1,3-dihydro-2H-indol-2-one] |
